For 21 molecules, IC50 results are on record in patent US20230210999A1, “TARGETED PROTEASE DEGRADATION (TED) PLATFORM” (EUBULUS BIOTHERAPEUTICS INC., priority 2020, published 2023).

Assay [1] concerns MV4;11 cells. As to the kind of experiment: Cell proliferation experiment (Alamar blue, 72 h), MV4;11. The format is cell-based, human. The conditions noted are these: Homo sapiens, MV4-11, 72 h, MV4;11 cells, 72 h; read-out: Inhibitory activity IC50 of tested compounds on MV4;11 cells. Put shortly: (§1)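 Viability measured by Alamar blue fluorescence after 72 h culture with compound (5-fold serial dilutions, two wells each) added to log-phase cells. IC50 derived from a Min/Max/Slope logistic equation.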

For assay [2], the system named is Daudi cells. Nature of the assay: Cell proliferation experiment, Daudi. It is filed as cell-based, human. The conditions noted are these: Homo sapiens, Daudi, 72 h, Daudi cells, 72 h; read-out: Inhibitory activity IC50 of tested compounds on Daudi cells. In outline: as §1
For assay [3], the system named is NCIH82 cells. Nature of the assay: Cell proliferation experiment, NCI-H82. It is filed as cell-based, human. Particulars: Homo sapiens, NCI-H82, 72 h, NCIH82 cells, 72 h; read-out: Inhibitory activity IC50 of tested compounds on NCIH82 cells. Put shortly:
as §1

Assay [4] deals with HT-29 cells. As to the kind of experiment: Cell proliferation experiment, HT-29. It is filed as cell-based. The conditions noted are these: Homo sapiens; HT-29 cells, 72 h; read-out: Inhibitory activity IC50 of tested compounds on HT-29 cells. The protocol: (§2) Reagents: RPMI-1640 medium, McCoy's 5A medium, IMDM medium, MEM medium, L-15 medium, fetal bovine serum. Penicillin-Streptomycin double antibody, trypsin, etc., 2-mercaptoethanol, NEAA, pyruvate, etc.
(§3) The cells were cultured in conventional ways, and the cells should be passed at least 2 generations before plating. Cells at the logarithmic growth phase were collected, prepared into single cell suspensions and counted. The concentration of cells was adjusted to the desired concentration, and cells were inoculated into a 96-well cell culture plate at 100 μl per well. 100 μL of complete medium of the test compound were added to each well, set up 2 duplicate wells for each concentration, and diluted with a 5-fold gradient, and continued to culture for 72 h. All cells were subjected to IC50 test for corresponding samples. The experimental results are shown in Test Example 4.
(§4) The fluorescence intensity of each well was detected using the Alarm blue method, and IC50 was calculated.
(§5) IC50 was calculated according to the following formula:
(§6) Y=Max+(Min−Max)/[1+(X/IC50)×Slope]
(§7) wherein Min, Max and Slope represent the minimum, maximum and slope respectively.

The test system of assay [5] is U-87MG cells. As to the kind of experiment: Cell proliferation experiment, U-87MG. The format is cell-based. The conditions noted are these: Homo sapiens; U-87MG cells, 72 h; read-out: Inhibitory activity IC50 of tested compounds on U-87MG cells. How it is done:
as §2, §3, §4, §5, §6, §7

Assay [6] concerns HUVEC cells. As to the kind of experiment: Cell proliferation experiment, HUVEC. It is filed as cell-based. The conditions noted are these: Homo sapiens, 72 h, read-out: Inhibitory activity IC50 of tested compounds on HUVEC cells. The protocol: as §2, §3, §4, §5, §6, §7
Assay [7] deals with HL-60 cells. As to the kind of experiment: Cell proliferation experiment, HL-60. It is filed as cell-based. Particulars: Homo sapiens, 72 h, read-out: Inhibitory activity IC50 of tested compounds on HL-60 cells. The protocol: as §2, §3, §4, §5, §6, §7

Turning to `CC[C@@H]1C(=O)N(C)c2cnc(Nc3ccc(C(=O)NC4CCN(CCN(C)CCCOCCC#Cc5cccc6c5CN(C5CCC(=O)NC5=O)C6=O)CC4)cc3OC)nc2N1C1CCCC1` (stereo partly drawn) [Compound 932], the IC50 in assay [1] is at most 0.1 µM; in assay [2], at most 0.1 µM; in assay [3], at most 1 µM; in assay [4], at most 0.3 µM; in assay [5], at most 0.1 µM; in assay [6] it was at most 1 µM.

Take `CC[C@@H]1C(=O)N(C)c2cnc(Nc3ccc(C(=O)NCCCOCCCOCCN(C)CCC#Cc4cccc5c4CN(C4CCC(=O)NC4=O)C5=O)cc3OC)nc2N1C1CCCC1` (stereo partly drawn) [Compound 930]: the IC50 in assay [1] is at most 0.1 µM; in assay [2], at most 0.1 µM; in assay [3], at most 1 µM; in assay [4] it was at most 0.3 µM; in assay [5], at most 0.1 µM; in assay [6], at most 1 µM.

`CC[C@@H]1C(=O)N(C)c2cnc(Nc3ccc(C(=O)NC4CCN(C5CN(CCC#Cc6cccc7c6CN(C6CCC(=O)NC6=O)C7=O)C5)CC4)cc3OC)nc2N1C1CCCC1` (stereo partly drawn) [Compound 928]: the IC50 in assay [1] was at most 0.1 µM; in assay [2] it was at most 0.1 µM; in assay [3], at most 1 µM; in assay [4], at most 0.3 µM; in assay [5], at most 0.1 µM; in assay [6], at most 1 µM.

Consider `CC[C@@H]1C(=O)N(C)c2cnc(Nc3ccc(C(=O)NC4CCN(CCCOCCN(C)CCCC#Cc5cccc6c5CN(C5CCC(=O)NC5=O)C6=O)CC4)cc3OC)nc2N1C1CCCC1` (stereo partly drawn) [Compound 924], for which the IC50 in assay [1] was at most 0.1 µM; in assay [2], at most 0.1 µM; in assay [3] it was at most 1 µM; in assay [4], at most 0.3 µM; in assay [5], 0.1 to 0.5 µM; in assay [6] it was at most 1 µM.

For the molecule `CC[C@@H]1C(=O)N(C)c2cnc(Nc3ccc(C(=O)NC4CCC(N5CCN(CCCNCCC#Cc6cccc7c6CN(C6CCC(=O)NC6=O)C7=O)CC5)CC4)cc3OC)nc2N1C1CCCC1` (stereo partly drawn) [Compound 933], the 50% inhibitory concentration (IC50) in assay [1] is at most 0.1 µM; in assay [2], 0.1 to 1 µM; in assay [3] it was at most 1 µM; in assay [4], 0.3 to 1 µM; in assay [5], 0.1 to 0.5 µM; in assay [6], at most 1 µM.

For `CC[C@@H]1C(=O)N(C)c2cnc(Nc3ccc(C(=O)NCCCOCCOCCN(C)CCC#Cc4cccc5c4CN(C4CCC(=O)NC4=O)C5=O)cc3OC)nc2N1C1CCCC1` (stereo partly drawn) [Compound 920], the IC50 in assay [1] is at most 0.1 µM; in assay [2], at most 0.1 µM; in assay [3], at most 1 µM; in assay [4] it was 0.3 to 1 µM; in assay [5], at most 0.1 µM; in assay [6], at most 1 µM.

With `CC[C@@H]1C(=O)N(C)c2cnc(Nc3ccc(C(=O)NC4CCN(CCCNCCCOCCC#Cc5cccc6c5CN(C5CCC(=O)NC5=O)C6=O)CC4)cc3OC)nc2N1C1CCCC1` (stereo partly drawn) [Compound 904], the IC50 is at most 0.1 µM in assay [1]; at most 1 µM in assay [7]; above 1 µM in assay [3]; above 1 µM in assay [4]; 0.5 to 1 µM in assay [5].

For the molecule `CC[C@@H]1C(=O)N(C)c2cnc(Nc3ccc(C(=O)NC4CCN(CCCOCCCN(C)CCCC#Cc5cccc6c5CN(C5CCC(=O)NC5=O)C6=O)CC4)cc3OC)nc2N1C1CCCC1` (stereo partly drawn) [Compound 919], the IC50 is at most 0.1 µM in assay [1]; at most 0.1 µM in assay [2]; at most 1 µM in assay [3]; 0.3 to 1 µM in assay [4]; 0.1 to 0.5 µM in assay [5]; at most 1 µM in assay [6].

On to `CC[C@@H]1C(=O)N(C)c2cnc(Nc3ccc(C(=O)NC4CCN(CCCCN(C)CCCC#Cc5cccc6c5CN(C5CCC(=O)NC5=O)C6=O)CC4)cc3OC)nc2N1C1CCCC1` (stereo partly drawn) [Compound 923], for which the IC50 was at most 0.1 µM in assay [1]; at most 0.1 µM in assay [2]; at most 1 µM in assay [3]; at most 0.3 µM in assay [4]; 0.1 to 0.5 µM in assay [5]; at most 1 µM in assay [6].

Regarding `CC[C@@H]1C(=O)N(C)c2cnc(Nc3ccc(C(=O)NCCCOCCN(C)CCC#Cc4cccc5c4CN(C4CCC(=O)NC4=O)C5=O)cc3OC)nc2N1C1CCCC1` (stereo partly drawn) [Compound 927], the IC50 in assay [1] is at most 0.1 µM; in assay [2], at most 0.1 µM; in assay [3], at most 1 µM; in assay [4], at most 0.3 µM; in assay [5], at most 0.1 µM; in assay [6] it was at most 1 µM.

In the case of `CC[C@@H]1C(=O)N(C)c2cnc(Nc3ccc(C(=O)NC4CCC(N5CCN(CCCC(=O)NC#Cc6cccc7c6CN(C6CCC(=O)NC6=O)C7=O)CC5)CC4)cc3OC)nc2N1C1CCCC1` (stereo partly drawn) [Compound 926], the IC50 in assay [1] is at most 0.1 µM; in assay [2], at most 0.1 µM; in assay [3], at most 1 µM; in assay [4], 0.3 to 1 µM; in assay [5] it was 0.1 to 0.5 µM; in assay [6], at most 1 µM.

Regarding `CC[C@@H]1C(=O)N(C)c2cnc(Nc3ccc(C(=O)NC4CCN(CCCCNCCCC#Cc5cccc6c5CN(C5CCC(=O)NC5=O)C6=O)CC4)cc3OC)nc2N1C1CCCC1` (stereo partly drawn) [Compound 922], the IC50 is at most 0.1 µM in assay [1]; 0.1 to 1 µM in assay [2]; at most 1 µM in assay [3]; 0.3 to 1 µM in assay [4]; 0.1 to 0.5 µM in assay [5]; at most 1 µM in assay [6].

`CC[C@@H]1C(=O)N(C)c2cnc(Nc3ccc(C(=O)NC4CCN(CCOCCO)CC4)cc3OC)nc2N1C1CCCC1` [Compound 864]: the IC50 in assay [1] is at most 0.1 µM; in assay [2], at most 0.1 µM; in assay [3], at most 1 µM; in assay [4], at most 0.3 µM; in assay [5] it was at most 0.1 µM.

Regarding `CC[C@@H]1C(=O)N(C)c2cnc(Nc3ccc(C(=O)NCCCNCCCOCCC#Cc4cccc5c4CN(C4CCC(=O)NC4=O)C5=O)cc3OC)nc2N1C1CCCC1` (stereo partly drawn) [Compound 921], the IC50 in assay [1] was at most 0.1 µM; in assay [2], 0.1 to 1 µM; in assay [3], above 1 µM; in assay [4], above 1 µM; in assay [5], 0.1 to 0.5 µM; in assay [6], at most 1 µM.

For `CC[C@@H]1C(=O)N(C)c2cnc(Nc3ccc(C(=O)NC4CCN(CCOCCNCC(O)C#Cc5cccc6c5CN(C5CCC(=O)NC5=O)C6=O)CC4)cc3OC)nc2N1C1CCCC1` (stereo partly drawn) [Compound 869], the IC50 in assay [1] was at most 0.1 µM; in assay [2], 0.1 to 1 µM; in assay [3], at most 1 µM; in assay [4], above 1 µM; in assay [5], 0.1 to 0.5 µM.

For `CC[C@@H]1C(=O)N(C)c2cnc(Nc3ccc(C(=O)NC4CCN(CCOC[C@@H](N)C(=O)Nc5cccc6c5CN(C5CCC(=O)NC5=O)C6=O)CC4)cc3OC)nc2N1C1CCCC1` (stereo partly drawn) [Compound 870], the IC50 is 0.1 to 1 µM in assay [1]; above 1 µM in assay [2]; above 1 µM in assay [3]; above 1 µM in assay [4]; above 1 µM in assay [5].

In the case of `CC[C@@H]1C(=O)N(C)c2cnc(Nc3ccc(C(=O)NCCCN(C)CCOCCC#Cc4cccc5c4CN(C4CCC(=O)NC4=O)C5=O)cc3OC)nc2N1C1CCCC1` (stereo partly drawn) [Compound 886], the IC50 in assay [1] is at most 0.1 µM; in assay [2], 0.1 to 1 µM; in assay [3], above 1 µM; in assay [4] it was above 1 µM; in assay [5], at most 0.1 µM.

As to `CC[C@@H]1C(=O)N(C)c2cnc(Nc3ccc(C(=O)NCCCNCCOCCCC#Cc4cccc5c4CN(C4CCC(=O)NC4=O)C5=O)cc3OC)nc2N1C1CCCC1` (stereo partly drawn) [Compound 881], the IC50 in assay [1] is 0.1 to 1 µM; in assay [2] it was above 1 µM; in assay [3] it was above 1 µM; in assay [4] it was above 1 µM; in assay [5] it was above 1 µM.

As for `CC[C@@H]1C(=O)N(C)c2cnc(Nc3ccc(C(=O)NC4CCN(CCCCNCCC#Cc5cccc6c5CN(C5CCC(=O)NC5=O)C6=O)CC4)cc3OC)nc2N1C1CCCC1` (stereo partly drawn) [Compound 909], the IC50 in assay [1] is at most 0.1 µM; in assay [2], at most 0.1 µM; in assay [3], at most 1 µM; in assay [4], at most 0.3 µM; in assay [5], at most 0.1 µM.

`CC[C@@H]1C(=O)N(C)c2cnc(Nc3ccc(C(=O)NCCOCCOCCCNCCC#Cc4cccc5c4CN(C4CCC(=O)NC4=O)C5=O)cc3OC)nc2N1C1CCCC1` (stereo partly drawn) [Compound 894]: the IC50 in assay [1] was at most 0.1 µM; in assay [2] it was 0.1 to 1 µM; in assay [3], above 1 µM; in assay [4], above 1 µM; in assay [5], 0.1 to 0.5 µM.

As to `CC[C@@H]1C(=O)N(C)c2cnc(Nc3ccc(C(=O)NC4CCN(CCOCCOC[C@H](N)C(=O)Nc5cccc6c5CN(C5CCC(=O)NC5=O)C6=O)CC4)cc3OC)nc2N1C1CCCC1` (stereo partly drawn) [Compound 871], the IC50 in assay [1] is 0.1 to 1 µM; in assay [2] it was above 1 µM; in assay [3], at most 1 µM; in assay [4] it was above 1 µM; in assay [5], above 1 µM.
